The results in this text go back to ChEMBL document CHEMBL3507680, “University of Dundee, Gates Library screen for HepG2 cell viability”.

Molecules are shown by their SMILES.

The data set is described as follows: Human HepG2 cell viability assay in 384 well format. It counts as toxicity, cell-based. Details: dose 125 nL, time 70.5 hour; concentration not given beside the values. Conditions: HepG2 cells, read-out: Inhibition.
Turning to `CCCNC(=O)c1cc(Br)cc(S(=O)(=O)N2CCOCC2)c1F`, the cytotoxicity at 70.5 h was -0.419%.

In the case of `CN(Cc1cc(-c2ccccc2)no1)C(=O)CNS(C)(=O)=O`, the cytotoxicity at 70.5 h was 23.3%.

With `O=C1CCCN1Cc1nnc2n1CCN(Cc1ccccn1)CC2`, the cytotoxicity at 70.5 h was -7.47%.

In the case of `Cc1nonc1CN(C)Cc1nc(-c2ccccc2Cl)oc1C`, the cytotoxicity at 70.5 h was -7.91%.

On to `C=Cc1cccc(CN2CCCn3nc(CNS(C)(=O)=O)cc3C2)c1`, for which the cytotoxicity at 70.5 h is -3.84%.

Turning to `CCN(CC)CCNCC1CCOC(C)(C)C1` (stereo not given), the cytotoxicity at 70.5 h was -5.74%.

Consider `Cc1sc(NC(=O)CN2CCCC(c3ncc[nH]3)C2)c(C)c1C` (stereo not given), for which the cytotoxicity at 70.5 h is -14.9%.

`Cc1cccc(S(=O)(=O)N2C[C@H]3C[C@H](C(=O)NCC(C)C)[C@@H](C2)O3)c1`: the cytotoxicity at 70.5 h amounted to 25.7%.

Take `O=C(CC1CCCC1)NCCS(=O)(=O)N1CCN(c2ccccc2)CC1`: the cytotoxicity at 70.5 h was -3.36%.

For `CCN(CC)Cc1cc(C(=O)N2CC[C@@]3(O)CCCC[C@H]3C2)c(C)o1`, the cytotoxicity at 70.5 h is -9.79%.

As for `Cc1nc(CNCC(O)COc2ccc3c(c2)OCO3)cs1` (stereo not given), the cytotoxicity at 70.5 h came to 1.9%.

As to `CCc1nnc(CN2CCC3(CC2)Nc2ccccc2NC3=O)o1`, the cytotoxicity at 70.5 h worked out at 19.8%.

`O=c1n(CCSCc2ccccc2F)nc2ccccn12`: the cytotoxicity at 70.5 h is -11.3%.

Take `CCn1c(CN2CCCC2)nnc1C1CCN(Cc2cc(C)no2)CC1`: the cytotoxicity at 70.5 h was -6.8%.

With `CCC(CNC(=O)c1ccccc1Br)N1CCc2ccccc2C1` (stereo not given), the cytotoxicity at 70.5 h is -9.67%.

As for `COc1ccc(C)cc1-n1cnnc1C1CC(=O)N(C)C1` (stereo not given), the cytotoxicity at 70.5 h is -4.76%.

Consider `O=S1(=O)C[C@@H]2[C@H](C1)N(Cc1cccc(O)c1)CCN2CC1CC1`, for which the cytotoxicity at 70.5 h was -5.99%.

Regarding `O=C(c1ccccc1-c1ccccc1)N1CCOC2(CNCCOC2)C1` (stereo not given), the cytotoxicity at 70.5 h is -11.1%.

For `Cc1cc(C)c2c(c1)C(NC(=O)CSCc1ccncc1)CCO2` (stereo not given), the cytotoxicity at 70.5 h was -7.37%.

Regarding `COc1ccc(COCC(O)CNC(=O)c2cc(C)cc(C)c2)cc1` (stereo not given), the cytotoxicity at 70.5 h is -11.8%.

Turning to `CN(C)C(=O)COC[C@@]12CCC[C@@H]1CNC2`, the cytotoxicity at 70.5 h was -13.5%.

As for `COc1ncc(CN(CCCN2CCOCC2)Cc2ccc(C)o2)cn1`, the cytotoxicity at 70.5 h is -4.04%.

Take `Cc1cn2c(n1)C(CNCC1=Cc3ccccc3OC1)CCC2` (stereo not given): the cytotoxicity at 70.5 h was 10.6%.

Consider `Cc1cccc(CC(=O)NC2CCN(C(=O)NC(C)(C)C)CC2)c1`, for which the cytotoxicity at 70.5 h turned out to be 12.2%.

Turning to `CN(C)C(=O)c1cccc(CN2CCOC(Cn3cccn3)C2)c1` (stereo not given), the cytotoxicity at 70.5 h was -12.9%.

Consider `c1ccc(-c2nc(CN3CCCC3Cn3cncn3)cs2)cc1` (stereo not given), for which the cytotoxicity at 70.5 h turned out to be 14.3%.

As for `COc1ccc2c(c1)OC1(CCN(Cc3cccc(C)c3)CC1)CC2=O`, the cytotoxicity at 70.5 h was -2.19%.

`Cc1nc(CN(CCS(C)(=O)=O)C(C)C)no1`: the cytotoxicity at 70.5 h was -5.83%.

For the compound `CCC(NC(=O)c1nn(C)cc1C(=O)O)c1ccccc1` (stereo not given), the cytotoxicity at 70.5 h is -15.2%.

`O=C(CC1CC1)NC[C@]12COC[C@H]1CN(c1ncccn1)C2`: the cytotoxicity at 70.5 h is -8%.

On to `CN(C)c1cncc(-c2ccnc3c2ccn3C)n1`, for which the cytotoxicity at 70.5 h was -0.942%.

Turning to `CCCc1nnc(N2CCN(c3cccc(OC)c3)C(=O)C2)o1`, the cytotoxicity at 70.5 h came to 15.6%.

Take `CN1CCN(C(=O)c2cnsn2)c2ccc(F)cc21`: the cytotoxicity at 70.5 h was -10.4%.

As to `CN(C(=O)CN1CCC(c2cc3ccccc3[nH]2)CC1)C(C)(C)C#N`, the cytotoxicity at 70.5 h is -16.1%.

Regarding `Cc1cnn(CC2CCCN2CC(=O)Nc2cc(C(C)(C)C)no2)c1` (stereo not given), the cytotoxicity at 70.5 h was determined as 5.18%.

Regarding `CN(CCC(=O)NC1CC1)Cc1ccc(Cl)s1`, the cytotoxicity at 70.5 h is -7.03%.

Turning to `CCC(C(=O)NCc1cc(N2CCOCC2)ncn1)n1cccn1` (stereo not given), the cytotoxicity at 70.5 h was -1.38%.

For `Cc1cc(C)cc(CCC(=O)N(C)CCc2cn[nH]c2)c1`, the cytotoxicity at 70.5 h is -14.2%.

With `CN1CCC(Cc2cnc(CNC(=O)Cc3cccc(F)c3)cn2)CC1`, the cytotoxicity at 70.5 h is -2.96%.

For `CN(C)CCNC(=O)Cc1cccc(I)c1`, the cytotoxicity at 70.5 h worked out at 18.8%.

On to `Cc1nc2ccc(S(=O)(=O)Nc3c(C)nn(CC(=O)O)c3C)cc2s1`, for which the cytotoxicity at 70.5 h was -10.8%.

For `COc1c(CNCc2cccnc2N2CCN(C)CC2)c(C)nn1C`, the cytotoxicity at 70.5 h came to 4%.

With `CN(Cc1ncnn1C)c1ccnc(Cc2ccccc2)n1`, the cytotoxicity at 70.5 h was -2.06%.

Turning to `COc1ccc(CNc2cc3[nH]c(O)nc3cc2C)cc1`, the cytotoxicity at 70.5 h was -5.05%.

As to `CCN(C(=O)CN(Cc1cccc(O)c1)C1CCC(O)CC1)C1CC1` (stereo not given), the cytotoxicity at 70.5 h was -2.83%.

In the case of `COc1ccc(F)c(CN2CC(=O)N(c3ccccc3C)CC2C)c1` (stereo not given), the cytotoxicity at 70.5 h was -7.03%.

On to `CN1CCCN(c2cnn(Cc3ccncc3)c(=O)c2)CC1`, for which the cytotoxicity at 70.5 h is -9.95%.

As to `NCc1ccc(Oc2ccc(F)c(F)c2)cc1C(F)(F)F`, the cytotoxicity at 70.5 h is -0.173%.

Regarding `CCc1noc(C(C)N2CCC(NS(=O)(=O)c3ccccc3)CC2)n1` (stereo not given), the cytotoxicity at 70.5 h came to 19.7%.

`CC(=O)c1ccc(C(=O)NCC2Cc3ccccc3O2)s1` (stereo not given): the cytotoxicity at 70.5 h was determined as 23.7%.

`Cc1cnc(N2CC(C(=O)N3CCOCC3)C3(CCOCC3)C2)nc1` (stereo not given): the cytotoxicity at 70.5 h is -3.59%.

For the compound `COc1ccc(CN2CCC3(CC(=O)N(c4cccc(F)c4)C3)C2)cc1` (stereo not given), the cytotoxicity at 70.5 h is -10.4%.

For the compound `Cc1nc(CN2C(=O)C[C@H]3[C@H]2CCN3C2CCOC2)cs1` (stereo not given in full), the cytotoxicity at 70.5 h was determined as 28.1%.

On to `Cc1cn2c(n1)CCC(NS(=O)(=O)c1sc(C)nc1C)C2` (stereo not given), for which the cytotoxicity at 70.5 h was 3.5%.

As to `CC(C)(C)c1nc(CN2CCCC(Cn3cncn3)C2)no1` (stereo not given), the cytotoxicity at 70.5 h is -13.7%.

`CN(C)CCN(C)S(=O)(=O)Cc1ccc(Br)cc1`: the cytotoxicity at 70.5 h stood at 11.7%.

Turning to `O=C1NCCO[C@H]2CN(C(=O)c3cccs3)CC[C@@H]12`, the cytotoxicity at 70.5 h is 20.1%.

Regarding `Cc1nccn1CCCC(=O)N1CCCN(c2cccnn2)CC1`, the cytotoxicity at 70.5 h is -2.35%.

In the case of `C[S+]([O-])c1nncn1CC(=O)c1cccc(Br)c1` (stereo not given), the cytotoxicity at 70.5 h was -3.69%.

For `CC(=O)c1ccc(C(=O)N2CCC(c3cc(O)nc(C)n3)CC2)s1`, the cytotoxicity at 70.5 h is -10.9%.

For `CN(C)CC1CN(c2ccc(C#N)cn2)CCO1` (stereo not given), the cytotoxicity at 70.5 h was -10.1%.

With `FC(F)COc1ccccc1NCc1nnsc1Cl`, the cytotoxicity at 70.5 h is -10.5%.

With `CC(=O)NCc1nnn2c1CN(c1ncccn1)CCC2`, the cytotoxicity at 70.5 h is -7.48%.

Consider `COC(=O)c1cccc(S(=O)(=O)N2CSCC2C(=O)N(C)C2CC2)c1` (stereo not given), for which the cytotoxicity at 70.5 h was 12.1%.

For the compound `CC(O)(CNC(=O)NCc1cccc(-n2cncn2)c1)c1ccco1` (stereo not given), the cytotoxicity at 70.5 h was 7.59%.

For `Cn1cccc1C(=O)NCc1cn2c(n1)CN(S(=O)(=O)C1CC1)CC2`, the cytotoxicity at 70.5 h is -10.3%.

Take `CC1CN(C)CCN1CC(=O)NCCOc1ccc2c(c1)OCO2` (stereo not given): the cytotoxicity at 70.5 h amounted to 9.64%.

As for `Cc1cnn(CCNCC(O)COc2ccc(F)cc2)c1` (stereo not given), the cytotoxicity at 70.5 h is -10.4%.

With `COc1ncccc1CN1CCC2(CCCN2S(C)(=O)=O)CC1`, the cytotoxicity at 70.5 h was -7.14%.

Turning to `CN1CCC2(COCCN(Cc3ccc4c(c3)OCO4)C2)C1` (stereo not given), the cytotoxicity at 70.5 h was determined as 13.5%.

With `Cn1cc(N2CC3(CCN(Cc4nccs4)CC3)OCC2=O)cn1`, the cytotoxicity at 70.5 h amounted to 39.5%.

For the compound `CN(C)C(=O)c1cccn1-c1ccc2c(c1)OCCO2`, the cytotoxicity at 70.5 h was -2.2%.

With `CC(C)[C@H](NC(=O)Cn1nc2c(cc1=O)CCCC2)C(=O)O`, the cytotoxicity at 70.5 h is -4.44%.

Turning to `CNC(=O)COc1nc(C(C)(C)C)no1`, the cytotoxicity at 70.5 h turned out to be 3.09%.

For `CS(=O)(=O)c1ccc(NC(=O)NCc2ccc(F)cc2)cn1`, the cytotoxicity at 70.5 h was -0.885%.

In the case of `CCc1nnsc1C(=O)N(C)Cc1ccc(Br)o1`, the cytotoxicity at 70.5 h is -2.39%.

`C=C(C)CN(c1cn[nH]c1)S(=O)(=O)c1cccc(C#N)c1`: the cytotoxicity at 70.5 h was -5.38%.

Turning to `O=C(NCc1ccc(-n2cncn2)nc1)c1ccc2c(c1)CCO2`, the cytotoxicity at 70.5 h is -10.1%.

For `CCN1CCN(CC(O)c2cc(Cl)ccc2Cl)CC1` (stereo not given), the cytotoxicity at 70.5 h is -8.52%.

Consider `COCC(=O)NCc1cc(=O)n2c(n1)CN(Cc1ccsc1)CCC2`, for which the cytotoxicity at 70.5 h is -12.5%.

Consider `Cc1ccccc1CC(C)NC(=O)Nc1cnn(CC(N)=O)c1` (stereo not given), for which the cytotoxicity at 70.5 h was -0.765%.

Consider `CCc1ccc(OCC(O)CN2CCN(CC)CC2)cc1` (stereo not given), for which the cytotoxicity at 70.5 h was 20.5%.

Regarding `CCOC(=O)N(C)C1CCN(Cc2cnc3ccccn23)CC1`, the cytotoxicity at 70.5 h is -4.79%.

`O=C(NCCOc1ncc(Cl)cc1Cl)NCc1ccncc1`: the cytotoxicity at 70.5 h was -1.68%.

Consider `Cc1nonc1C1CCCN1C(=O)c1cn2ccsc2n1` (stereo not given), for which the cytotoxicity at 70.5 h is -13.5%.

As to `Cc1noc(C)c1CNC(=O)N1CCCC(C)CC1` (stereo not given), the cytotoxicity at 70.5 h is -3.6%.

For the compound `O=C(NC1CC1)N1CCOCC2(C1)CN(c1ccccc1)C(=O)CO2` (stereo not given), the cytotoxicity at 70.5 h is -9.6%.

`COc1ccc(CCN2C(=O)O[C@@H]3CN(C)C[C@@H]32)cc1`: the cytotoxicity at 70.5 h was -10.7%.

As to `CN1C(=O)CC2(CCN(S(=O)(=O)C3CC3)CC2)c2ccccc21`, the cytotoxicity at 70.5 h amounted to 7.41%.

With `COC1CCN(S(=O)(=O)N2CC[C@@](O)(C3CCC3)[C@H](C)C2)CC1`, the cytotoxicity at 70.5 h was -11.9%.

For the compound `COC(=O)c1cc(C(=O)N2CCOC(C)(C)C2)n(-c2ccccc2)n1`, the cytotoxicity at 70.5 h was -10.1%.

For the compound `COCc1ccc(C(=O)N2CCC(Oc3ccccc3)(C(=O)O)CC2)o1`, the cytotoxicity at 70.5 h was 17.3%.

As to `CNc1ncc(CN(C)C(=O)CCc2cc3n(n2)CCCNC3)cn1`, the cytotoxicity at 70.5 h was -9.14%.

`CC[C@H](C)[C@@H](CO)NC(C)Cc1ccccc1F` (stereo not given in full): the cytotoxicity at 70.5 h is -2.57%.

Regarding `CN(C)C(=O)N1CCC(C2C(=O)Nc3ccccc32)CC1` (stereo not given), the cytotoxicity at 70.5 h was -10.4%.

Turning to `COc1ccc(Cl)cc1NC(=O)CCNc1ccc(C#N)cn1`, the cytotoxicity at 70.5 h was -6.33%.

As for `O=C(COC1CCCC1)NC(C(=O)Nc1cc[nH]n1)c1ccccc1` (stereo not given), the cytotoxicity at 70.5 h turned out to be 3.78%.

Consider `COc1ccc2[nH]cc(-c3ccnc(N4CCC(C)CC4)n3)c2c1`, for which the cytotoxicity at 70.5 h was 1.51%.

Regarding `Cc1csc(CNC(=O)Nc2cc(C(F)(F)F)c[nH]c2=O)n1`, the cytotoxicity at 70.5 h was -5.01%.

Regarding `O=C(Nc1ccc2c(ccn2CCN2CCOCC2)c1)c1ccncc1`, the cytotoxicity at 70.5 h is -1.62%.
